From US20150283269A1, “RECONSTITUTED HUMAN IMMUNE SYSTEM IN A PATIENT DERIVED XENOGRAFT MOUSE MODEL” (Crown Bioscience Inc., priority 2014, published 2015)

System: GA 0055 tumor
Test: Anti-tumor activity against GA 0055 gastric tumor PDX in HuMice and NOD/SCID mice
Assay type: in vivo, mouse
Text: In yet another example of the utility of the HuPrime™ 3.0 mouse model (PDX human immunocompetent NOD/SCID mouse with CD34^+ hSC+PDX gastric tumor), patient cells derived from a human patient diagnosed with over-expressing gastric cancer, GA 0055, were engrafted into HuPrime™ 3.0 mice.
The HuPrime™ 3.0 mice engrafted with GA 0055 were divided into six groups, four mice each. Three groups were engrafted with UCB human stem cells and three groups were not.
Patient tumor fragments of NSCLC or gastric tumor tissue derived from diseased seed mice were engrafted 2.5 weeks after the CD34+ cell inoculation in order to create patient derived xenograft (PDX) models. Solid tumor sample fragments from seed mice inoculated with selected primary human lung or gastric cancer tissues were harvested and used for inoculation into mice. Each mouse was inoculated subcutaneously at the right flank with one tumor fragment (2-3 mm in diameter) for tumor development. The treatments were started when mean tumor size reached approximately 100-150 mm^3 The transplanted animals were monitored by weekly bleed and FACS analysis for hCD45^+ cells in peripheral blood.

Which results are given for `N.N.[Cl][Pt][Cl]` [Cisplatin]?
treatment response, stained GA 0055 tumor cross-sections (5 mg/kg Cisplatin, H&E stained cross-section (40x10), FIG. 6A): effective; tumor growth (HuMice mice (reconstituted human immunocompetent) engrafted with GA 0055, with vs without treatment, FIG. 7A, 7C): slowed tumor growth
